# Description: Freeze-dried aliquots of the three gliadin polypeptide constructs Cv6, Av6, and 4K, as well as the four building blocks BB1, BB2a, BB3a, and BB4a were reconstituted in pure water, loaded on a PET-Ti backing film and dried in an oven (at ~30° C.). Immediately after drying, dry deposits were reconstituted at five different molarities (approximately 1.8, 0.91, 0.45, 0.091 or 0.045 mM) by pipetting up and down with either pure water (A), PBS 1× (B), or artificial perspiration (C). The concentration in soluble material was measured by HPLC at 215 nm from the solutions recovered from PET-Ti backing films. Data are median+interquartile range of the different molarities tested. Data are expressed as the percentage of soluble material recovered, based on the expected concentration (all values above 100% were set to 100).
# Immediately after drying, dry deposits were reconstituted at five different concentrations (20, 10, 5, 1 and 0.5 mg/mL) by pipetting up and down with either pure water (A), PBS 1× (B), or artificial perspiration (C). The concentration in soluble material was measured by HPLC at 215 nm from the solutions recovered from PET-Ti backing films. Data are presented as median+interquartile range of the different molarities tested. Data are expressed as the percentage of soluble material recovered, based on the expected concentration (all values above 100% were set to 100). (D) As an illustration, photographs of the reconstitution of dry deposits with pure water are shown and annotated.
# Immediately after drying, deposits were reconstituted by pipetting up and down with each of pure water, PBS 1× at pH 7.0, and artificial perspiration at pH 4.5, each at five different molarities (approximately 1.8, 0.91, 0.45, 0.091, and 0.045 mM). The concentration in soluble material was measured by HPLC at 215 nm.
# Immediately after drying, patch deposits were reconstituted by pipetting up and down with each of pure water, PBS 1× at pH 7.0, and artificial perspiration at pH 4.5, at five different concentrations (20, 10, 5, 1, and 0.5 mg/mL). The concentration in soluble material was measured by HPLC at 215 nm.
row,Substance,median percentage of soluble material recovered from the patch backing film
1,H-PQPEQPEQPFPEQPQ-NH2 [BB2a],above 80%
2,H-PSGEGSFQPSQENPQ-NH2 [BB4a],above 80%
